This note sets out measurements from patent US6277583A, “Affinity labeling libraries and applications thereof” (Conjuchem, Inc., priority 1996, dated 2001).

This assay deals with T1, HSA (Homo sapiens, UniProt P02768).
T1 construct: purchased Sigma A-8673
The experiment in a line: Rates of reaction (kinetics of biotinylation) of library members with HSA. It is filed as binding. As for the experimental part:
The rates of reaction of four members of the library with HSA were determined, and the kinetics describing the biotinylation of HSA by these members of the library is shown in FIG. 2. The curves all show a characteristic early fast phase of reaction followed by a slowing of the reaction at later times. The maximal rate of reaction is determined by chosing the best straight line fit for the early values of the time course.
Members of the library differ in their structures from that of the thiophenyl ester of biotin in that a pentapeptide with a C- terminus amide is present and the ester function is spatially distinct because its position is on the amino acid side chain of glutamate.

T1 sequence (P02768 25-609): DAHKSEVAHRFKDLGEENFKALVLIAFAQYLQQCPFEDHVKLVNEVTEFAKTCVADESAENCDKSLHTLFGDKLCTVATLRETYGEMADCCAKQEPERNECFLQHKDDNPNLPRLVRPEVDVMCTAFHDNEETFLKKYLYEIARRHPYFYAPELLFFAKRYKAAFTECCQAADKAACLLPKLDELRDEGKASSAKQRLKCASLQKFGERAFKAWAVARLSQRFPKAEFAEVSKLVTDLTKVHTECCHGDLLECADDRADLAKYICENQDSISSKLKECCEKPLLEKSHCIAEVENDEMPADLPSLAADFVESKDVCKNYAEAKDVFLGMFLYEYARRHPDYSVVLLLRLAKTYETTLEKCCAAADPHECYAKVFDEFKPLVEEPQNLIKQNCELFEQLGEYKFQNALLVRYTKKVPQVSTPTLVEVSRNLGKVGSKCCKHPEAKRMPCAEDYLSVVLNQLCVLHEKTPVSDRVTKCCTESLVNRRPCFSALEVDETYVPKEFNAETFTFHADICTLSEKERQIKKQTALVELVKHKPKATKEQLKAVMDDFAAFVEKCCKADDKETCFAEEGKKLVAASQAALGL

Take `O=C1NC2CSC(CCCCC(=O)Sc3ccccc3)C2N1` (centres unmarked) [Thiophenyl Biotin, thiophenyl ester of biotin]: the Rate (maximal rate of biotinylation of HSA, best straight line fit of early time course (FIG. 2)) was 0.0004-0.002 OD units/min. Moreover, the “Fold Increase over 80 μM thiophenyl biotin” value (rate of reaction with HSA relative to thiophenyl ester of biotin) is recorded as 1 fold.
